Reference: patent US12070444B2, “Modulation of molecular markers using S-equol” (Board of Regents, The University of Texas System, priority 2020, dated 2024)
Entries after “also recorded” stand apart in the source; their conditions may differ.

Experiments:
[1] = target: T1, ERβ pY36 (Homo sapiens, UniProt Q92731); test: pY36-specific phosphorylation signal of ERβ in MDA-MB-231 cells; type: cell-based; settings: MDA-MB-231 cells (FIG. 16A)
T1 construct: host or cells: MDA-MB-231 (human TNBC cell line)
Description: FIG. 16. […] See, Yuan et al. (2016) listed below, which is incorporated by reference herein for all purposes.

[2] = system: TNBC; test: Pilot biomarker clinical study of S-equol in TNBC (Example 12); type: in vivo, human
Description: A pilot biomarker clinical study was performed in 20 subjects with documented TNBC to determine the effect of the ERβ agonist S-equol on Ki67 an indicator of tumor cell proliferation. Tumor cell proliferation was measured by immunohistological staining for Ki-67. See, FIG. 18 for the outline of the protocol. Ki-67 is encoded by the gene MKI67 gene and is required to maintain individual mitotic chromosomes dispersed in the cytoplasm following nuclear envelope disassembly. Measuring the fraction of Ki-67-positive cells in a tumor is known to be a reliable parameter for assessing cancer patient prognosis. Subjects with TNBC are known to have very high levels of Ki67.
Patients enrolled in the study received a history, physical, laboratory assessment, radiological imaging, and diagnostic biopsies. Immunohistochemistry (IHC) of Ki67 (proliferation marker), total ERβ, and pY36-ERβ (phosphorylated ERβ, B7H1 (also known as PDL-1) and BRCA1 (breast cancer 1, early onset) were conducted using core needle biopsy tissue samples prior to treatment. Patients were given oral S-equol 50 mg, twice daily for approximately two weeks (10-21 days) prior to the scheduled oncologic surgeries or start of primary systemic therapy. Tumor samples were obtained from the surgery or the two-week repeat core needle biopsy. Post-treatment IHC evaluation of Ki67, total ERβ, phosphorylated ERβ (pY36) and BRCA1 were obtained. Ki67 reduction is a validated surrogate marker of both short and long term hormonal therapy efficacy in trials of human breast cancer and was compared pre- and post-treatment with S-equol. […] A c-DNA microarray platform was also used to discover downstream transcriptional targets of ERβ resulting from activation by S-equol.
Women eligible for the study had newly diagnosed, previously untreated, triple negative breast cancer, with an intact primary breast tumor of any size. All stages of the disease were eligible. They took S-equol during the time they underwent standard preoperative evaluation or pre-therapeutic work-up for advanced disease, such as staging procedures or central line placement. If primary surgery was performed, tissue leftover after standard diagnostic evaluation was used for the two-week biomarker assessment. […] See, FIG. 10.
A standard procedure for acquiring core biopsy with a Bard 14-gauge needle was utilized for determining TNBC prior to enrollment. Whenever possible, the tumor tissues used for IHC analyses were acquired at the same time as the diagnostic core biopsy. The tissue samples were sent for staining of total and pY36 ERβ and Ki67, and analyzed. Testing for ERα, PR, and HER-2 was performed using validated methods. TNBC tumors were defined as less than 5% nuclear staining of carcinoma cells for ERα and PR and either 0, 1, or 2+ staining for HER-2 by IHC. Whole-Genome DASL HT platform from Illumina, which is designed for gene expression profiling with extremely low input of RNA (50 pg), was used to interrogate paired FFPE tissue obtained before and after exposure to S-equol.
The primary analysis estimated the geometric mean change of the Ki67 expression from baseline to two weeks. This was performed using a one-sample t-test of the pre/post differences in the log-transformed data, and summarized by the 95% confidence interval. […]

[3] = system: TNBC; test: Neoadjuvant window trial of S-equol in TNBC patients (Example 15); type: in vivo, human; set-up: Cyclin D1 staining, median decrease: unit not given here
Description: FIG. 35. Clinical trial with TNBC patients. A neoadjuvant window trial was performed on 39 enrolled patients with TNBC confirmed on diagnostic core needle biopsy. Cohort A (20 patients) received a daily dose of 50 mg BID and Cohort B (19 patients) received a higher dose of 150 mg BID for 10-21 days.
S-equol is a novel oral Estrogen Receptor (ER) Beta agonist with preclinical data showing suppression of TNBC cellular proliferation. A neoadjuvant window trial was performed on 39 enrolled patients with TNBC confirmed on diagnostic core needle biopsy. Cohort A (20 patients) received a daily dose of 50 mg BID and Cohort B (19 patients) received a higher dose of 150 mg BID for 10-21 days. (FIG. 35.) Paired biopsies were evaluable for 36 patients. Primary outcome was a change from pre- to post-treatment Ki-67 and secondary outcomes were included as correlative biomarkers. […] The average decrease in Ki-67 was 8% (P=0.00206, 95% CI−13.46 to −3.26).

[4] = target: T1, ERβ pY36; settings: breast cancer cells; published work (Yuan, 2016); cited from earlier work
[5] = system: rat hippocampal neurons; settings: cited from earlier work
[6] = of 17 evaluable patients, S-equol 50 mg twice daily 10-21 days

T1 sequence (Q92731 whole entry): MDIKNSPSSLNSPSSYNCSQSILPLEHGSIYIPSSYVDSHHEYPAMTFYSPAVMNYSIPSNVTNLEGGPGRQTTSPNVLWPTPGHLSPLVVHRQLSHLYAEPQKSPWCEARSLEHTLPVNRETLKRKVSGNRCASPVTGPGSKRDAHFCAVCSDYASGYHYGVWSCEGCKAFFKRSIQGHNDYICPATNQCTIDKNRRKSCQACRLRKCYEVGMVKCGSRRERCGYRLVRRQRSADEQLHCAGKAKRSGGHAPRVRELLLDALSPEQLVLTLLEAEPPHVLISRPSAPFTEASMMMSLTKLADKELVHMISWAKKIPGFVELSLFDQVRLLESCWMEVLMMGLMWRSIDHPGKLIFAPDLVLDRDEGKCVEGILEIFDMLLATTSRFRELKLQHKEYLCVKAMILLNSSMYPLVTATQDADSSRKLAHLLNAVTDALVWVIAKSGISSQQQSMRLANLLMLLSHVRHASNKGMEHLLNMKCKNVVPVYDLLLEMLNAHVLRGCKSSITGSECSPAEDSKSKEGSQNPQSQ

SMILES: Oc1ccc([C@H]2COc3cc(O)ccc3C2)cc1 [S-equol]
- pY36-specific phosphorylation signal [1]: enhanced
- change in Ki67 pre- vs post-treatment (in words) ([2]; TNBC patients, oral S-equol 50 mg twice daily for 10-21 days): measurable decrease in Ki67; also recorded: measurable decline in Ki67
- patients with 0-20% reduction in Ki-67 [2, 6]: 7 patients
- patients with greater than 20% reduction in Ki-67 [2, 6]: one
- patients with greater than 30% reduction in Ki-67 [2, 6]: 4 patients
- patients with no reduction in Ki-67 [2, 6]: 5 patients
- mean posttreatment Ki-67 ([3]; 36 evaluable patients, S-equol 50 mg BID or 150 mg BID for 10-21 days, mean pre-treatment Ki-67 68%): 59%
- tolerability ([3]; oral, patients with TNBC): well tolerated
- proliferation as measured by Ki-67 (in words) ([3]; patients with TNBC): inhibition of proliferation
- change in CD3 or CD8 staining ([3]; pre- and post-treatment paired tumor samples): no significant change; also recorded: did not significantly change
- average decrease in Ki-67 ([3]; pre- to post-treatment, P=0.00206, 95% CI −13.46 to −3.26): 8%
- patients with a Ki-67 decrease of at least 20% from baseline ([3]; share of the patients): 28%
- Cyclin D1 staining, median decrease ([3]; with S-equol exposure, range −27.5-0.0): 12.5
- ER-beta expression by IHC (in words) ([3]; with exposure to S-equol): decreased
- cyclin D1 staining by IHC (in words) ([3]; with exposure to S-equol): decreased
- ER Beta IHC expression, median decrease ([3]; with exposure to S-equol, range −65.00 to −19.50): 45%
- human ERβ phosphorylation at Y36 [4]: promotes
- respiratory and maximal glycolysis fluxes [5]: increase
